One series relates to C. albicans 98-234. The experiment in a line: In vitro susceptibility, broth microdilution (MIC, median-effect fit). The class given is cell-based. To be noted: Candida albicans, 98234, strain 98-234. On the procedure:
(§1) C. albicans 98-17 and C. albicans 98-234 were maintained on SDA plates. Susceptibility of yeast isolates was performed using broth microdilution in RPMI-1640 (supplemented with 0.165 M morpholinepropanesulfonic acid, buffered to pH 7.0) according to procedures recommended in NCCLS M27-A2 (25). Test drug solutions were incubated with yeast inoculum at 35° C. in 96-well plates for a 24 h period. All measurements were done in triplicate. Percent yeast growth relative to drug-free control was determined by measuring optical density (OD) at 650 nm, using the Microplate EL 312e plate reader. […] The MIC values were expressed as a mean of three determinations.
(§2) Calculation of a combination index was done in two steps. First, inhibition of fungal growth in response to varying concentrations of single-drug was fit to median-effect function:
(§3) where fa is the mean growth inhibition, relative to drug-free control, Dm is the drug concentration for a 50% growth inhibition, and m is the slope-factor describing the dose-response curve. Parameter Dm and m for each drug were estimated by non-linear regression using SigmaPlot (v. 9.0).

The next series relates to C. albicans 98-17. The series is described as above. The class given is cell-based. Particulars: Candida albicans, 9817, strain 98-17. On the procedure: as §1, §2, §3
The test system of series [1] is C. albicans 98-17 and C. albicans 98-234. The experiment in a line: In vitro susceptibility, broth microdilution, both isolates. It counts as cell-based. To be noted: Candida albicans. On the procedure: as §1, §2, §3
The target in another series is 4% BSA (Bos taurus, UniProt P02769). The experiment in a line: Electronic absorption kinetics at 412 nm upon dilution in serum albumin. The class given is physicochemical, bovine. Particulars: AmB 10 μg/mL. As for the experimental part:
Electronic absorption kinetics. Stock solutions containing AmB (micelle encapsulated or dissolved in DMSO) were added to 4% BSA, buffered to pH 7.0 with 10 mM HEPES. The final concentration of AmB was 10 μg/mL. For AmB dissolved in DMSO, the final DMSO content was less than 0.2%. Absorbance spectra were recorded from 300 to 450 nm at room temperature by using the Cary 50 spectrophotometer (Varian, Palo Alto, Calif.). Sequential spectra were acquired at 15 second intervals for the first 5 min; and at 1 minute intervals for an additional 40 minutes. A scan for baseline absorbance was taken before addition of AmB and was subtracted from each spectrum. The change in absorbance at 412 nm, […] was fit to a first-order process of the form A∞−At=a.e^−k.t using non-linear regression (SigmaPlot v.9.0).

Series [2] in a line: AmB release from PEG-DSPE micelles using equilibrium dialysis. The class given is physicochemical. Particulars: 25° C., 30 μg/mL AmB. On the procedure: AmB release from PEG-DSPE micelles using equilibrium dialysis. AmB stock solutions (micelle encapsulated or dissolved in DMSO) were diluted to 30 μg/mL in HEPES buffer or in 4% BSA. These solutions were put in dialysis cassettes (MWCO 7000 g/mol, Pierce) and were placed in excess buffer (5 mM HEPES, pH 7.0). The MWCO of the dialysis membrane was chosen to allow for diffusion of AmB (molecular weight 924.1) while retaining large molecules such as bovine serum albumin (molecular weight 66 kDa) and intact micelles (molecular weight >100 kDa). Near-sink conditions for AmB were maintained by performing the release experiment in a 100-fold excess dialysis buffer. Because AmB is susceptible to degradation, the dialysis buffer was degassed overnight and 20 μg/mL propyl gallate was added as an antioxidant (15, 16). At predetermined time intervals, 100 μL samples were taken and AmB concentration in dialysis cassettes was determined using reversed-phase HPLC. […]
AmB release was fit to a first-order process of the form At/A0=a.e^−k.t by non-linear regression (SigmaPlot v.9.0). […] The half-life t1/2 for AmB release was calculated using t1/2=0.693/k.
For determination of AmB content, 15 μL samples were injected into 4.6 mm×150 mm Eclipse XDB-C8 reversed-phase column (Agilent Technologies) and AmB absorbance detected at 412 nm using the diode array detector. […]

Series [3] can be described thus: Critical aggregation concentration (CAC) of AmB. It counts as physicochemical.
Where [4] appears, read: >95% inhibition, 24 h, 35° C., read-out: Minimum Inhibitory Concentrations (MIC).
The mark [5] stands for this setting: median-effect fit, read-out: Dm × 10^3 (concentration for 50% growth inhibition).

4% BSA, sequence (P02769 25-607): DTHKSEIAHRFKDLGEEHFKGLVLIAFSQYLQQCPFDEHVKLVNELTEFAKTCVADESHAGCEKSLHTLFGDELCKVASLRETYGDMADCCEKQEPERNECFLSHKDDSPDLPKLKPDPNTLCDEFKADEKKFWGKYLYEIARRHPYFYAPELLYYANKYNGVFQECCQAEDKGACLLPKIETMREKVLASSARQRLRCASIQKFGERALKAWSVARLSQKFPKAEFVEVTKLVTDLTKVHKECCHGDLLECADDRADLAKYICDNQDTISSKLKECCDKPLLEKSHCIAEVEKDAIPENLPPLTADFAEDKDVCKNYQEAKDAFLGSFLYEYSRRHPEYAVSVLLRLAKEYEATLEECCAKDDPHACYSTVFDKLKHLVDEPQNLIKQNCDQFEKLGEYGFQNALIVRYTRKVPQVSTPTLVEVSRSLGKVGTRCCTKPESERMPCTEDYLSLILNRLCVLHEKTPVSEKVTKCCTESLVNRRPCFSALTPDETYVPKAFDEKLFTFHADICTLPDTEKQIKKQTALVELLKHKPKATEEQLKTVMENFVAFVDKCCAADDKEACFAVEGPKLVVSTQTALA

Turning to `Nc1nc(=O)[nH]cc1F` [5-FC, 5-fluorocytosine], the MIC with C. albicans 98-234 (setting [4]) was 0.1 µg/mL; in the series with C. albicans 98-17 (setting [4]) it was 0.1 µg/mL; in series [1] (both isolates, 24 h), 0.1 µg/mL. Also, the IC50 in the series with C. albicans 98-234 (setting [5]) is 39.8 ± 0.1 µg/mL; in the series on C. albicans 98-17 (setting [5]), 70.7 ± 7.3 µg/mL; in series [1] (range over isolates, read-out: Dm) it was 0.04 to 0.07 µg/mL.
With `C[C@@H]1[C@H](O)[C@@H](C)/C=C/C=C/C=C/C=C/C=C/C=C/C=C/[C@H](O[C@@H]2O[C@H](C)[C@@H](O)[C@H](N)[C@@H]2O)C[C@@H]2O[C@](O)(C[C@@H](O)C[C@@H](O)[C@H](O)CC[C@@H](O)C[C@@H](O)CC(=O)O[C@H]1C)C[C@H](O)[C@H]2C(=O)O` [Free AmB, Amphotericin B], on 4% BSA, the “A∞ (absorbance at 412 nm)” value is on record as 0.77. On 4% BSA (room temperature), the “100 k (absorbance change at 412 nm)” value was found to be 3.25 ± 0.23 min⁻¹. For the same compound, the “100 · k (AmB release, first-order fit)” value in series [2] (5 mM HEPES) amounted to 1.01 ± 0.10 h⁻¹; in series [2] (4% BSA) it was 3.72 ± 0.04 h⁻¹. Also, the CAC was 10 µM in series [3] (in 4% BSA) and 1 μMA in series [3] (in HEPES).

The record behind these values is US20100210575A1, “STRUCTURING EFFECT OF CHOLESTEROL IN PEG-PHOSPHOLIPID MICELLES, DRUG DELIVERY OF AMPHOTERICIN B, AND COMBINATION ANTIFUNGALS” (WISCONSIN ALUMNI RESEARCH FOUNDATION, priority 2007, published 2010).
